From patent publication US5137914A, “Sulfonylamino substituted bicyclo [2.2.1]heptane hydroxamic acid derivatives useful as pharmaceuticals” (Shionogi & Co., Ltd., priority 1990, dated 1992)

Columns and labels:
[1] = test system: rat washed platelets (thromboxane A2-receptor antagonistic activity); experiment: Inhibitory Effect on Platelet Aggregation in Rat (washed platelets, collagen-induced, in vitro); assay type: cell-based, rat (Sprague-Dowley); conditions: 0.05 h, collagen inducer, 37° C., 3 minutes after inducer, Compounds Ia and Ib used as their sodium salts, read-out: Inhibition for Platelet Aggregation IC50
Method: (§1) From the abdominal artery of a male rat (Sprague-Dowley, 7 weeks old) was collected 10 ml of blood with a plastic syringe containing 1.5 ml of ACD (85 mM of sodium citrate, 70 mM of citric acid, 110 mM of glucose) and 20 μg of prostaglandin E1. The blood was placed in a plastic test tube, shaken moderately turning and centrifuged for 10 minutes at 160×g to give platelet rich plasma (PRP). To the prepared PRP was added apyrase (25 μg/ml) and the mixture was layered on 40% bovine serum albumin. The resulting mixture was centrifuged at 1200×g for 25 minutes. The suspension of the prepared platelet pellets in a small amount of a buffer (137 mM of NaCl, 2.7 mM of KCl, 1.0 mM MgCl2, 3.8 mM of NaH2 PO4, 3.8 mM of Hepes, 5.6 mM of glucose, 0.035% of bovine serum albumin, pH 7.35) was applied on 10 ml of Sepharose 2B column and eluted with such a buffer to prepare washed platelets.
(§2) The platelet aggregation reaction was measured by the aggregometer (NKK HEMA TRACER 1 MODEL PAT-6A.6M, Nikkou Bioscience).
In a measuring curvette was placed 245 μl of the washed platelets which concentration was adjusted to […] and set in the aggregometer. The adjusted washed platelets were stirred (1000 rpm) at 37° C. and 3.8 μl of 0.1M CaCl2 was added thereto. One minute later, 0.5 μl of a solution of a test compound in dimethylsulfoxide was added and 2 minutes later, 1 μl of collagen (Collagen reagent Horm®, HORMON-CHEMIE Munchen GMBH, final concentration […]) was added as an inducer for platelet aggregation. Platelet aggregation was monitored in terms of the increase and decrease in light transmission.
Concentration of 50% inhibition for platelet aggregation was calculated from the rate of aggregation. (The rate corresponds to light transmission of a sample which was measured at 3 minutes after adding the inducer for platelet aggregation, provided that light transmissions of the washed platelets and the buffer samples are taken as 0% and 100%, respectively.)

mice = experiment: Respiration inhibitory activity on intravenous injection to mice (index of partial agonistic activity); assay type: in vivo; conditions: intravenously injected to mice
rat platelet = experiment: Partial agonistic activity (activity to induce the shape change in rat platelet); assay type: cell-based; conditions: decrease in light transmission, rat washed platelets, 0.1M CaCl2, read-out: ED50 of partial agonistic activity (shape change)
Method: as §1, §2
Furthermore, partial agonistic activity (activity to induce the shape change in rat platelet) was determined according to the method used for the reaction of platelet aggregation. To the washed platelets was added 0.1M CaCl2 aqueous solution and 1 minute later, the decrease in light transmission caused by the test compounds was determined to estimate the activity.

SMILES	IC50 [1]	EC50 (rat platelet)	partial agonistic activity by determination of respiration inhibitory activity (mice)
O=C(CCC/C=C\C[C@H]1[C@@H]2CC[C@@H](C2)[C@@H]1NS(=O)(=O)c1ccccc1)NO [Ia, (1R,2S,3S,4S)-(5Z)-7-(3-phenylsulfonyl-aminobicyclo[2.2.1]hept-2-yl)-5-heptenohydroxamic acid]	0.012 µM	–	substantially no partial agonistic activity
O=C(CCC/C=C\C[C@H]1[C@@H]2CC[C@@H](C2)[C@@H]1NS(=O)(=O)c1ccc(O)cc1)NO [Ib, (1R,2S,3S,4S)-(5Z)-7-[3-(4-hydroxyphenylsulfonylamino)bicyclo[2.2.1]hept-2-yl]-5-heptenohydroxamic acid]	0.01 µM	–	–
O=C(CCC/C=C\[C@@H]1[C@H]2CC[C@H](C2)[C@H]1CNS(=O)(=O)c1ccc(Br)cc1)NO [Ic, (1S, 2S, 3R, 4R)-(5Z)-6-[3-(4-bromophenylsulfonylaminomethyl)bicyclo[2.2.1]hept-2-yl]-5-hexenohydroxamic acid]	0.02 µM	–	–

Continued, in another order:

IC50 [1]	EC50 (rat platelet)	SMILES	partial agonistic activity by determination of respiration inhibitory activity (mice)
0.06 µM	–	CONC(=O)CCC/C=C\C[C@H]1[C@@H]2CC[C@@H](C2)[C@@H]1NS(=O)(=O)c1ccccc1 [Ie, (1R, 2S, 3S, 4S)-(5Z)-0-methyl-7-[3-phenylsulfonylaminobicyclo[2.2.1]hept-2-yl]-5-heptenohydroxamic acid]	–
0.02 µM	–	CN(O)C(=O)CCC/C=C\C[C@H]1[C@@H]2CC[C@@H](C2)[C@@H]1NS(=O)(=O)c1ccccc1 [If, (1R, 2S, 3S, 4S)-(5Z) -N-methyl-7-(3-phenylsulfonylaminobicyclo[2.2.1]hept-2-yl)-5-heptenohydroxamic acid]	–
0.002 µM	0.001 µM	Cc1ccc(S(=O)(=O)N[C@H]2[C@H]3CC[C@H](C3)[C@@H]2C/C=C\CCCC(=O)O)cc1 [Rf. Compd., reference compound]	–
